Assay results from patent publication US7537906B2, “Apoptosis inducer and method of screening for a substance inhibiting acylated homoserine lactone” (priority 2003, dated 2009).

What was measured:
CaCo-2 cells = experiment: Evaluation of apoptosis by DNA fragmentation (DNA ladder); assay type: cell-based, human; conditions: CaCo-2 cells cultured for 12 hours, 0-100 μM
Method: 5×10^6 CaCo-2 cells were inoculated per 15 cm dish (NUNC), washed twice with PBS (-), and then cultured in a serum-free DMEM medium containing 1% NEAA for 24 hours. N-(3-oxododecanoyl)-L-homoserine lactone was added at each concentration (1 μM to 100 μM), followed by 12 hours of culture. Subsequently, the supernatant and the cells removed from the dish using TE were centrifuged at room temperature at 800 rpm for 5 minutes, and the supernatant was removed. The cells were suspended with 300 μl of PBS (-), and then the suspension was centrifuged again at 4° C. at 2500 rpm for 5 minutes, and the supernatant was removed. The cells were lysed by the addition of 300 μl of a cytolysis buffer [10 mM Tris-HCl (pH 7.4), 10 mM EDTA (pH 8.0), 0.5% Triton X-100], and then allowed to stand on ice for 10 minutes, thereby extracting DNA fragments. The extract was centrifuged at 4° C. at 14000 rpm for 10 minutes. RNase A was added to the obtained supernatant, and then incubation was carried out at 37° C. for 1 hour. Proteinase K was further added, and then incubation was carried out at 50° C. for 30 minutes. The extract of the DNA fragments was concentrated by ethanol precipitation, and then electrophoresis was carried out using 2% agarose gel. After the gel was stained with ethidium bromide, DNA fragmentation was detected under a UV transilluminator.

IL-8 = conditions: human alveolar cells; cited from earlier work

SMILES: CCCCCCCCCC(=O)CC(=O)N[C@H]1CCOC1=O [N-(3-oxododecanoyl)-L-homoserine lactone]
- concentration at which the DNA ladder was observed (CaCo-2 cells): ≥ 30 µM
- IL-8 production (IL-8): stimulates
